This note sets out measurements from patent publication US9857359B2, “Methods for determining drug efficacy using cereblon-associated proteins” (CELGENE CORPORATION, priority 2012, dated 2018).

In experiment [1] the test system is Aiolos. Description: Aiolos protein inhibition in myeloma cells. In kind it is cell-based.
Experiment [2] has as its system Aiolos. Description: Aiolos Western blotting of primary human T cells. The class given is cell-based. The settings on record: 6 hours and 24 hours. As for the experimental part: (§1) Primary T cells from up to 3 donors were isolated from human leukocytes (Blood Center of New Jersey, East Orange, N.J.) by centrifugation through FICOLL® following the ROSETETTESEP™ protocol (Stem Cell Technologies, Vancouver, Canada). Purified T cells were stimulated with anti-CD3 Antibody (Ebioscience, San Diego, Calif.), drug treated for six hours, harvested and Aiolos and Ikaros protein expression was determined by immunoblot analysis using antibodies against Aiolos (Santa Cruz, Dallas, Tex.) and Ikaros (Millipore, Billerica, Mass.) with our without blocking peptide.
Background: In western blotting, separated proteins are transferred to a membrane and probed.

For experiment [3], the system named is Aiolos. Description: Aiolos protein level in B cells from CLL patients and healthy subjects. The settings on record: B cells obtained from CLL patients as well as healthy subjects. In kind it is cell-based, human.
Experiment [4] deals with Aiolos. In words: Aiolos expression by western blot at 6 hours (FIG. 37). In kind it is cell-based. The settings on record: 6 hours after the treatment, with varying degrees.
The test system of the next experiment is Ikaros. Description: Ikaros expression by western blot at 6 hours (FIG. 37). In kind it is cell-based. The settings on record: 6 hours after the treatment, with varying degrees.
The subject of experiment [5] is Aiolos. Description: Aiolos expression in drug treated T cells (FIG. 48). The class given is cell-based, human. The settings on record: all of the respective cells tested (FIGS. 47, 48). The procedure: as §1
Experiment [6] concerns Aiolos. Description: B-CLL / CD40L fibroblast co-culture, Aiolos (Western blot, flow cytometry). The settings on record: for Aiolos protein level: B-CLL co-culture, 72 hours, 10 μM lenalidomide, 1 μM pomalidomide, 0.1 μM Compound A, 0.1 μM Compound B, 3 patient samples; for Dose dependence of Aiolos inhibition by flow cytometry: three different B-CLL patient co-culture samples. The class given is cell-based, human. As for the experimental part: (§2) CD40L expressing fibroblasts (gift from Angela Piperno, Rockefeller University, NY, N.Y.) were maintained in DMEM medium supplied with 20% FBS. Prior to co-cultures CD40L fibroblasts were pre-treated for 3 hours with 10 μg/mL Mytomicin C followed by a wash with PBS and Accutase dissociation. Cells were then re-plated at a density of 6×10^5 cells per well (24 well per plate format) and grown overnight to allow formation of monolayer. […] For long term cultures, half of the culture media was renewed every three days. Alternatively, for other assays, B-CLL cells were co-cultured on CD40L without being pre-stained.
(§3) Effects of compound treatment on CRBN, Aiolos, p21^WAF-1 and IRF4 were evaluated in 3 different patient cell samples (FIG. 56A).

For a further experiment, the system named is IRF4. Description: B-CLL / CD40L fibroblast co-culture Western blot, IRF4. The class given is cell-based, human. The settings on record: 72 hours, 10 μM lenalidomide, 1 μM pomalidomide, 0.1 μM Compound A, 0.1 μM Compound B, 3 patient samples. As for the experimental part: (§4) Human primary B-CLL cells viably frozen from patient samples were obtained from AllCells (Emeryville, Calif., USA) and maintained in Roswell Park Memorial Institute (RPMI)-1640 medium with 10% fetal bovine serum (FBS) (Invitrogen, Carlsbad, Calif.). CD40L expressing fibroblasts (gift from Angela Piperno, Rockefeller University, NY, N.Y.) were maintained in DMEM medium supplied with 20% FBS. Prior to co-cultures CD40L fibroblasts were pre-treated for 3 hours with 10 μg/mL Mytomicin C followed by a wash with PBS and Accutase dissociation. Cells were then re-plated at a density of 6×10^5 cells per well (24 well per plate format) and grown overnight to allow formation of monolayer. Defrosted viable primary B-CLL patient cells were pre-stained with CFSE reagent (Vibrant CFDA SE Cell Tracer Kit, Invitrogen, Carlsbad, Calif., USA) according to a manufacturer's supplied protocol and plated at 0.8-1×10^6 cells per well on the pre-formed monolayer of CD40L fibroblasts in RPMI 1640 medium supplemented with 10% FBS, 5 ng/mL rh-IL4 and 10 ng/mL rh-IL10 (Peprotech, USA). For long term cultures, half of the culture media was renewed every three days. Alternatively, for other assays, B-CLL cells were co-cultured on CD40L without being pre-stained.
(§5) Effects of compound treatment on CRBN, Aiolos, p21^WAF-1 and IRF4 were evaluated in 3 different patient cell samples (FIG. 56A). The three patient samples show similar expression levels of CRBN protein (compare lane 1 of the 3 Western blots in FIG. 56A; samples were run in same membrane even though gels are presented as 3 independent pictures in the figure). […] The effects on p21, IRF4 and Aiolos are consistent with the cell cycle arrest and inhibition of proliferation observed with compound treatment.

In another experiment the test system is p21^WAF-1. Description: B-CLL / CD40L fibroblast co-culture Western blot, p21^WAF-1. The class given is cell-based, human. The settings on record: 72 hours, 10 μM lenalidomide, 1 μM pomalidomide, 0.1 μM Compound A, 0.1 μM Compound B, 3 patient samples. As for the experimental part: as §4, §5
Another experiment concerns the target CRBN (Homo sapiens, UniProt Q96SW2). Description: B-CLL / CD40L fibroblast co-culture Western blot, CRBN. More on the design: endogenous in cells; host or cells: primary B-CLL patient cells co-cultured with CD40L-expressing fibroblasts. The class given is cell-based. The settings on record: 72 hours, 10 μM lenalidomide, 1 μM pomalidomide, 0.1 μM Compound A, 0.1 μM Compound B, 3 patient samples. The procedure: as §2, §3

Experiment [7] relates to Aiolos peptide containing lysine 203. Description: UbiScan mass spectrometry of ubiquitylated proteins in multiple myeloma cells. In kind it is cell-based. The text has this: Mass spectrometry of ubiquitylated proteins (Ubiscan™): Cell Signaling Technology's UbiScan™ proteomics platform was used to identify and quantify differences in ubiquitination in primary human T cells untreated (Treatment 1) or treated with Treatment 2 or Treatment 3, and in MM cell lines treated with immunomodulatory compounds in the presence or absence of the proteasome inhibitor MG132. The UbiScan™ method combines the isolation of ubiquitinated peptides from protease digested protein extracts using CST's proprietary immunoaffinity purification method with the identification and quantitation of peptides by liquid chromatography, tandem mass spectrometry (LC-MS/MS). The quantification of ubiquitination is based on the abundance of the ubiquitinated peptides recovered by antibody immunoprecipitation. The abundance or intensity information for each ubiquitinated peptide is based on the peak height of that peptide measured in the MS1 channel. The confidence in the calculated fold change is dependent on a number of factors, an important one being the intensity or peak height of the ubiquitinated peptide. Samples were analyzed by LC-MS/MS on an ORBITRAP VELOS™ mass spectrometer. […] Label-free quantitation was performed by comparing peak intensities of the same peptide ion in each sample to generate their corresponding fold-changes. […]

Molecules are shown by their SMILES.

Sequence of CRBN (Q96SW2 whole entry): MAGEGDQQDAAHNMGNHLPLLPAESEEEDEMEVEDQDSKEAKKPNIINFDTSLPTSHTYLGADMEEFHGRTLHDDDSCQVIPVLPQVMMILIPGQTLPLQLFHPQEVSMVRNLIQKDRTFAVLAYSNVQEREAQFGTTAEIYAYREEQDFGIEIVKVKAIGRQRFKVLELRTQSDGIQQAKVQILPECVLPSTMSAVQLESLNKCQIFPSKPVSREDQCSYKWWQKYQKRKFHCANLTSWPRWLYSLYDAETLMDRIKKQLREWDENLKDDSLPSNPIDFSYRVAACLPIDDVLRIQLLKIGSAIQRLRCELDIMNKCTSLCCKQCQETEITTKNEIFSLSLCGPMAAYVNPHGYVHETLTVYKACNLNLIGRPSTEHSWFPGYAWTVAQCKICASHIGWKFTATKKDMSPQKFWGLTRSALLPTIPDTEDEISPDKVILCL

As to `Cc1nc2cccc(N)c2c(=O)n1C1CCC(=O)NC1=O` (stereo not drawn) [Compound A, 3-(5-amino-2-methyl-4-oxo-4H-quinazolin-3-yl)-piperidine-2,6-dione], the Aiolos expression result in the experiment on Aiolos [1] is “showed inhibitory effect on Aiolos expression”; with Aiolos [2], “showed an inhibitory effect on Aiolos expression”; with Aiolos [3] it was “inhibit Aiolos expression”; in the experiment on Aiolos [4], “inhibited the expression of both Aiolos and Ikaros”; in the experiment with Aiolos [5] it was “reduced the expression of Aiolos and Ikaros”. Moreover, the “Potency in Aiolos protein inhibition relative to Len” value with Aiolos [1] is “higher potency than Len”. Besides, the Ikaros expression result in the experiment on Ikaros was “inhibited the expression of both Aiolos and Ikaros”. Besides, in the experiment with Aiolos [6], the Aiolos protein level result is recorded as “down regulated”. Further, the “Dose dependence of Aiolos inhibition by flow cytometry” value (from here on “Dose dependence of Aiolos inhibition”) in the experiment with Aiolos [6] is “dose-dependent inhibition of Aiolos”. The IRF4 protein level result in the experiment on IRF4 is reported as “down regulated”. Besides, the “p21^WAF-1 protein level” value with p21^WAF-1 was “upregulated”. The CRBN protein levels result on CRBN is “do not affect CRBN protein levels or in some samples induce slight increased of CRBN levels”.

With `O=C1CC[C@H](N2Cc3c(OCc4ccc(CN5CCOCC5)cc4)cccc3C2=O)C(=O)N1` [Compound B, 3-(4-((4-(morpholinomethyl)benzyl)oxy)-1-oxoisoindolin-2-yl)piperidine-2,6-dione], the Aiolos expression result in the experiment on Aiolos [1] was “showed inhibitory effect on Aiolos expression”; in the experiment with Aiolos [2], “showed an inhibitory effect on Aiolos expression”; with Aiolos [3] it was “inhibit Aiolos expression”; with Aiolos [4] it was “inhibited the expression of both Aiolos and Ikaros”; with Aiolos [5], “reduced the expression of Aiolos and Ikaros”. For the same molecule, the “Potency in Aiolos protein inhibition relative to Len” value with Aiolos [1] is given as “higher potency than Len”. The Ikaros expression entry with Ikaros is “inhibited the expression of both Aiolos and Ikaros”. The Aiolos protein level result in the experiment on Aiolos [6] is given as “down regulated”. Besides, the “Dose dependence of Aiolos inhibition” value in the experiment with Aiolos [6] was “dose-dependent inhibition of Aiolos”. The IRF4 protein level result in the experiment on IRF4 is “down regulated”. Further, in the experiment on p21^WAF-1, the “p21^WAF-1 protein level” value is given as “upregulated”. Also, the CRBN protein levels entry on CRBN is given as “do not affect CRBN protein levels or in some samples induce slight increased of CRBN levels”.

`Nc1cccc2c1CN(C1CCC(=O)NC1=O)C2=O` (stereo not drawn) [lenalidomide]: the “Ubiquitination of Aiolos peptide containing lysine 203” value in experiment [7] is on record as “enhance the ubiquitination of Aiolos peptide containing lysine 203”. Moreover, the IRF4 protein level result with IRF4 is recorded as “down regulated”. For the same molecule, the “p21^WAF-1 protein level” value in the experiment with p21^WAF-1 is recorded as “upregulated”.

Consider `Nc1cccc2c1C(=O)N(C1CCC(=O)NC1=O)C2=O` (stereo not drawn) [pomalidomide, reference compound], for which the Aiolos expression entry is “showed inhibitory effect on Aiolos expression” with Aiolos [1]; “showed an inhibitory effect on Aiolos expression” in the experiment with Aiolos [2]; “inhibit Aiolos expression” in the experiment on Aiolos [3]; “inhibited the expression of both Aiolos and Ikaros” in the experiment on Aiolos [4]. Further, the “Potency in Aiolos protein inhibition relative to Len” value with Aiolos [1] is listed as “higher potency than Len”. In experiment [7], the “Ubiquitination of Aiolos peptide containing lysine 203” value was “enhance the ubiquitination of Aiolos peptide containing lysine 203”. For the same molecule, the Ikaros expression result in the experiment with Ikaros is “inhibited the expression of both Aiolos and Ikaros”. In the experiment on Aiolos [6], the Aiolos protein level entry is listed as “down regulated”. Also, the “Dose dependence of Aiolos inhibition” value in the experiment on Aiolos [6] is “dose-dependent inhibition of Aiolos”. The IRF4 protein level result in the experiment with IRF4 is listed as “down regulated”. In addition, in the experiment on p21^WAF-1, the “p21^WAF-1 protein level” value is reported as “upregulated”. For the same molecule, the CRBN protein levels entry on CRBN is “do not affect CRBN protein levels or in some samples induce slight increased of CRBN levels”.
